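How tested: cells in 96-well plates exposed to compound for 48 hours at five concentrations. The concentration for 50% growth inhibition is given as GI50.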 Activity calls are given as the source filed them. Cut-off read from the data, not from the text of the source: active = GI50 up to about 1.1 µM and inactive = higher.
Experiments:
Assay in all cases: inhibition of tumour cell growth, NCI panel, 48 h
[1] = test system: SNB-78
[2] = test system: DMS-114
[3] = test system: RXF 631
[4] = test system: KM-20L2
[5] = test system: DMS-273
[6] = test system: M19-MEL
[7] = test system: HOP-18
[8] = test system: LXFL 529
[9] = test system: DLD-1

SMILES | GI50 [1] | GI50 [2] | GI50 [3] | GI50 [4] | GI50 [5] | GI50 [6] | GI50 [7] | GI50 [8] | GI50 [9]
CCc1cccc(C(C)C)c1NC(=O)C(=O)C(C(=O)C(=O)OC)c1nc2ccccc2nc1O (centres undefined) | > 100 µM (inactive) | > 100 µM (inactive) | > 100 µM (inactive) | > 100 µM (inactive) | > 100 µM (inactive) | > 100 µM (inactive) | > 100 µM (inactive) | > 100 µM (inactive) | –
CCCc1cc(OC(=O)c2c(O)cc(OC)cc2CCC)cc(O)c1C(=O)O | 25 µM (inactive) | 19.6 µM (inactive) | 26.3 µM (inactive) | 37.4 µM (inactive) | 32.1 µM (inactive) | 42.8 µM (inactive) | – | 24.1 µM (inactive) | 36.5 µM (inactive)
COc1ccccc1NC(=O)CC(=O)n1nc(C)c(/N=N/c2ccccc2Cl)c1C | 5.12 µM (inactive) | > 100 µM (inactive) | > 31.6 µM (inactive) | > 100 µM (inactive) | > 100 µM (inactive) | > 100 µM (inactive) | > 100 µM (inactive) | > 100 µM (inactive) | > 100 µM (inactive)
Cc1nc2c3c(ccc2nc1O)C(=O)c1ccccc1C3=O | – | 44.8 µM (inactive) | – | > 100 µM (inactive) | – | > 100 µM (inactive) | 66.7 µM (inactive) | 70 µM (inactive) | 31.8 µM (inactive)
CCCCCCCCCCCCCCCCCCN(C)C(COC)COP(=O)([O-])OCC[N+](C)(C)C (centres undefined) | 4.5 µM (inactive) | – | 6.85 µM (inactive) | 2.08 µM (inactive) | 1.38 µM (inactive) | 3.25 µM (inactive) | 6.08 µM (inactive) | 4.26 µM (inactive) | 3.48 µM (inactive)
CC(/C=C/C=C\C=C\C=C(/C)C(=O)NC(C)CO)=C\C(C)C(O)/C(C)=C/C(C)CCc1ccccc1 (centres undefined) | 8.04 µM (inactive) | < 0.01 µM (active) | – | 11.1 µM (inactive) | 1.87 µM (inactive) | 5.15 µM (inactive) | 10.8 µM (inactive) | 3.18 µM (inactive) | 13.7 µM (inactive)
C/N=C(\N=c1/ss/c(=N\C)n1C)N(C)C.[O-][Cl+3]([O-])([O-])O | – | > 100 µM (inactive) | > 100 µM (inactive) | > 100 µM (inactive) | 37.8 µM (inactive) | > 100 µM (inactive) | 23.9 µM (inactive) | > 100 µM (inactive) | 94.6 µM (inactive)
O=[PH](O)c1cc2c3ccccc3ccc2c2ccccc12 | > 100 µM (inactive) | > 100 µM (inactive) | – | > 100 µM (inactive) | > 100 µM (inactive) | > 100 µM (inactive) | > 100 µM (inactive) | > 100 µM (inactive) | > 100 µM (inactive)
Cc1cccc(C)c1NC(=O)/C(=N/NC(N)=S)C(C)C(=O)c1ccc(Cl)cc1 (centres undefined) | > 100 µM (inactive) | > 100 µM (inactive) | > 100 µM (inactive) | > 100 µM (inactive) | > 100 µM (inactive) | > 100 µM (inactive) | > 100 µM (inactive) | > 100 µM (inactive) | > 100 µM (inactive)
O=C1/C(=C/c2cc(O)c(O)c(O)c2)Oc2cc(O)cc(OC3OC(CO)C(O)C(O)C3O)c21 (centres undefined) | 19.4 µM (inactive) | 25.2 µM (inactive) | 1.81 µM (inactive) | 21.2 µM (inactive) | 1.85 µM (inactive) | 18 µM (inactive) | 53.5 µM (inactive) | 14.6 µM (inactive) | 18.7 µM (inactive)
CC/C(C)=C1\CCC(CN(C)C)C1=O (centres undefined) | 24.8 µM (inactive) | 23.4 µM (inactive) | 19.9 µM (inactive) | 21.7 µM (inactive) | 18.9 µM (inactive) | 18.1 µM (inactive) | 18.2 µM (inactive) | 16.3 µM (inactive) | 16.4 µM (inactive)
COc1cc2c(cc1OC)C1C=NC(C(=O)O)(C2)c2ccccc21 (centres undefined) | > 100 µM (inactive) | > 100 µM (inactive) | > 100 µM (inactive) | > 100 µM (inactive) | > 100 µM (inactive) | > 100 µM (inactive) | – | > 100 µM (inactive) | > 100 µM (inactive)
C=CCc1cc(-c2cc(CC=C)c(O)c(CNCCCl)c2)cc(CNCCCl)c1O | 39.3 µM (inactive) | 21.1 µM (inactive) | – | 17.5 µM (inactive) | – | 17.1 µM (inactive) | – | 15.1 µM (inactive) | 21.5 µM (inactive)
CN1C(=O)C(=CN)C(=O)N(C)C1=O | > 100 µM (inactive) | > 100 µM (inactive) | – | > 100 µM (inactive) | – | > 100 µM (inactive) | > 100 µM (inactive) | – | > 100 µM (inactive)
COC(=O)C(CCS(=O)(=O)CC(=O)C(=O)Nc1cccc(C(C)=O)c1)C(=O)OC | > 100 µM (inactive) | > 39.4 µM (inactive) | > 100 µM (inactive) | > 100 µM (inactive) | > 100 µM (inactive) | > 100 µM (inactive) | > 100 µM (inactive) | > 100 µM (inactive) | > 56.2 µM (inactive)
N/N=C1\C(=O)N(C2CCCCC2)C(=O)C1C(=O)NC1CCCCC1 (centres undefined) | 43.1 µM (inactive) | > 100 µM (inactive) | > 100 µM (inactive) | 20.7 µM (inactive) | – | > 100 µM (inactive) | > 100 µM (inactive) | > 100 µM (inactive) | > 100 µM (inactive)
Cc1ccc2c(c1)CNc1ccc(C)cc1CN2 | > 100 µM (inactive) | > 100 µM (inactive) | – | – | > 100 µM (inactive) | > 100 µM (inactive) | > 100 µM (inactive) | > 100 µM (inactive) | > 100 µM (inactive)
O=C1C(Cl)C(c2ccccc2)N1n1cnc2ccccc2c1=O (centres undefined) | > 100 µM (inactive) | > 100 µM (inactive) | – | > 100 µM (inactive) | > 100 µM (inactive) | > 100 µM (inactive) | 26.5 µM (inactive) | > 100 µM (inactive) | > 100 µM (inactive)
CCOC(=O)C1(C/C=C(/C)Cl)CCCC1=O (centres undefined) | – | 71.6 µM (inactive) | 95.1 µM (inactive) | 47.6 µM (inactive) | 23 µM (inactive) | > 100 µM (inactive) | > 100 µM (inactive) | > 100 µM (inactive) | 71.3 µM (inactive)
COC(=O)C1Cc2c([nH]c3ccccc23)C(C2CCCCC2)N1 (centres undefined) | – | > 100 µM (inactive) | > 100 µM (inactive) | > 100 µM (inactive) | > 100 µM (inactive) | > 100 µM (inactive) | > 100 µM (inactive) | > 100 µM (inactive) | > 100 µM (inactive)
NC1=NN(c2ccccc2)C(=O)C1/C(=N\NC(=O)c1cc2ccccc2cc1O)C(=O)Nc1nc([N+](=O)[O-])cs1 (centres undefined) | > 100 µM (inactive) | 18.4 µM (inactive) | 22.7 µM (inactive) | 40.9 µM (inactive) | > 45.2 µM (inactive) | 27.8 µM (inactive) | 40 µM (inactive) | 34.8 µM (inactive) | 31.5 µM (inactive)
CC1CC(C2=CC=CCS2)=Nc2ccccc2S1 (centres undefined) | > 100 µM (inactive) | – | > 100 µM (inactive) | > 100 µM (inactive) | > 100 µM (inactive) | > 100 µM (inactive) | > 100 µM (inactive) | > 100 µM (inactive) | 70 µM (inactive)
CC(C)N(C(=O)C12C3C4C5C3C1(C(=O)N(C(C)C)C(C)C)C5C42)C(C)C (centres undefined) | > 100 µM (inactive) | > 44.5 µM (inactive) | – | > 100 µM (inactive) | > 41.7 µM (inactive) | > 100 µM (inactive) | > 100 µM (inactive) | > 80.4 µM (inactive) | > 45.3 µM (inactive)
C=CCN1COc2c(cc3c4c(cccc24)C(=O)O3)C1 | – | 17.9 µM (inactive) | – | 24.3 µM (inactive) | 38.6 µM (inactive) | 18.7 µM (inactive) | > 100 µM (inactive) | 18.2 µM (inactive) | 25.4 µM (inactive)
CCOc1ccc(NC(=O)CC#N)cc1 | > 100 µM (inactive) | – | > 100 µM (inactive) | > 100 µM (inactive) | > 100 µM (inactive) | > 100 µM (inactive) | > 100 µM (inactive) | > 100 µM (inactive) | > 100 µM (inactive)
CC(=O)OC1CC2C(C)(C)C(=O)C=C[C@]2(C)C2CCC3(C)C(c4ccoc4)[C@@H](O)[C@H]4O[C@]43[C@]12C (some centres undefined) | 25.6 µM (inactive) | 20.1 µM (inactive) | – | 18.5 µM (inactive) | 22.1 µM (inactive) | 18.7 µM (inactive) | 21.6 µM (inactive) | 18.5 µM (inactive) | 20.4 µM (inactive)
COC1=CC(=O)[C@H]2[C@H](C)C(c3ccccc3)[C@@]2(C)C1=O (some centres undefined) | > 100 µM (inactive) | – | – | – | > 100 µM (inactive) | > 100 µM (inactive) | – | > 100 µM (inactive) | > 100 µM (inactive)
COc1ccc2cc3[n+](cc2c1OC)CCc1cc(O)c(O)cc1-3 | > 100 µM (inactive) | > 100 µM (inactive) | > 100 µM (inactive) | > 100 µM (inactive) | > 100 µM (inactive) | > 100 µM (inactive) | – | > 100 µM (inactive) | > 100 µM (inactive)

— ChEMBL document CHEMBL1201862, “PubChem BioAssay data set” (2004)
